Reference: PubChem BioAssay AID1963960 (Molecular Pharmacology Branch, DTP, NCI, 2024)

Tested on: MDA-MB-468 spheroids with HUVEC/MSC, viability
Assay: Anticancer human tumor MDA-MB-468 cell line growth inhibition [PI3K];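 note: spheroids exposed to agents for seven days before readout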;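 for viability, T/C: 100% = DMSO vehicle control viability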
Settings: for IC50: curve of first compound; for viability, T/C: stronger effect = lower value
Procedure, shortened: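 Three cell types, namely tumor cells, endothelial cells and mesenchymal stem cells, formed each spheroid. Combinations with four PI3K inhibitors were screened at clinically achievable concentrations decreasing by half-log, and spheroid viability was recorded.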

[1] = second compound 0.0316 µM, first compound 0.000316 µM
[2] = second compound 0.0316 µM, first compound 0.001 µM
[3] = second compound 0.0316 µM, first compound 0.00316 µM
[4] = second compound 0.0316 µM, first compound 0.01 µM
[5] = second compound 0.0316 µM, first compound 0.0316 µM
[6] = second compound 0.0316 µM, first compound 0.1 µM
[7] = second compound 0.1 µM, first compound 0.000316 µM
[8] = second compound 0.1 µM, first compound 0.001 µM
[9] = second compound 0.1 µM, first compound 0.00316 µM
[10] = second compound 0.1 µM, first compound 0.01 µM
[11] = second compound 0.1 µM, first compound 0.0316 µM
[12] = second compound 0.1 µM, first compound 0.1 µM
[13] = second compound 0.316 µM, first compound 0.000316 µM
[14] = second compound 0.316 µM, first compound 0.001 µM
[15] = second compound 0.316 µM, first compound 0.00316 µM
[16] = second compound 0.316 µM, first compound 0.01 µM
[17] = second compound 0.316 µM, first compound 0.0316 µM
[18] = second compound 0.316 µM, first compound 0.1 µM
[19] = second compound 1 µM, first compound 0.000316 µM
[20] = second compound 1 µM, first compound 0.001 µM
[21] = second compound 1 µM, first compound 0.00316 µM
[22] = second compound 1 µM, first compound 0.01 µM
[23] = second compound 1 µM, first compound 0.0316 µM
[24] = second compound 1 µM, first compound 0.1 µM
[25] = second compound 3.16 µM, first compound 0.000316 µM
[26] = second compound 3.16 µM, first compound 0.001 µM
[27] = second compound 3.16 µM, first compound 0.00316 µM
[28] = second compound 3.16 µM, first compound 0.01 µM
[29] = second compound 3.16 µM, first compound 0.0316 µM
[30] = second compound 3.16 µM, first compound 0.1 µM
[31] = second compound 10 µM, first compound 0.000316 µM
[32] = second compound 10 µM, first compound 0.001 µM
[33] = second compound 10 µM, first compound 0.00316 µM
[34] = second compound 10 µM, first compound 0.01 µM
[35] = second compound 10 µM, first compound 0.0316 µM
[36] = second compound 10 µM, first compound 0.1 µM

CC(=O)c1c(C)c2cnc(Nc3ccc(N4CCNCC4)cn3)nc2n(C2CCCC2)c1=O + CC(Nc1ncnc2nc[nH]c12)c1cc2cccc(Cl)c2c(=O)n1-c1ccccc1
IC50 (second compound 0.0316 µM): > 100 nM | IC50 (second compound 0.1 µM): > 100 nM | IC50 (second compound 0.316 µM): > 100 nM | IC50 (second compound 1 µM): > 100 nM | IC50 (second compound 3.16 µM): > 100 nM | IC50 (second compound 10 µM): < 0.316 nM | viability, T/C [1]: 92.6% | viability, T/C [2]: 93.9% | viability, T/C [3]: 84.6% | viability, T/C [4]: 103% | viability, T/C [5]: 99.7% | viability, T/C [6]: 88.1% | viability, T/C [7]: 88.6% | viability, T/C [8]: 91.2% | viability, T/C [9]: 84.1% | viability, T/C [10]: 92.7% | viability, T/C [11]: 80% | viability, T/C [12]: 86.4% | viability, T/C [13]: 84.7% | viability, T/C [14]: 78.9% | viability, T/C [15]: 81.3% | viability, T/C [16]: 72.8% | viability, T/C [17]: 90% | viability, T/C [18]: 78.5% | viability, T/C [19]: 66.4% | viability, T/C [20]: 71.4% | viability, T/C [21]: 59.3% | viability, T/C [22]: 83.3% | viability, T/C [23]: 76.2% | viability, T/C [24]: 62.8% | viability, T/C [25]: 59.6% | viability, T/C [26]: 53.1% | viability, T/C [27]: 62.3% | viability, T/C [28]: 58.1% | viability, T/C [29]: 67.2% | viability, T/C [30]: 58.8% | viability, T/C [31]: 38.9% | viability, T/C [32]: 38.5% | viability, T/C [33]: 39.3% | viability, T/C [34]: 46.7% | viability, T/C [35]: 45.7% | viability, T/C [36]: 46.1%

CC(C)n1nc(-c2ccc3oc(N)nc3c2)c2c(N)ncnc21 + CC(Nc1ncnc2nc[nH]c12)c1cc2cccc(Cl)c2c(=O)n1-c1ccccc1
IC50 (second compound 0.0316 µM): 41.9 nM | IC50 (second compound 0.1 µM): 34.5 nM | IC50 (second compound 0.316 µM): 37.9 nM | IC50 (second compound 1 µM): 24 nM | IC50 (second compound 3.16 µM): 11.3 nM | IC50 (second compound 10 µM): < 0.316 nM | viability, T/C [1]: 81.5% | viability, T/C [2]: 81.4% | viability, T/C [3]: 96.1% | viability, T/C [4]: 82.2% | viability, T/C [5]: 60% | viability, T/C [6]: 19.5% | viability, T/C [7]: 77.6% | viability, T/C [8]: 91.5% | viability, T/C [9]: 77.9% | viability, T/C [10]: 66% | viability, T/C [11]: 54.4% | viability, T/C [12]: 19.8% | viability, T/C [13]: 91.6% | viability, T/C [14]: 59.7% | viability, T/C [15]: 77.4% | viability, T/C [16]: 73.8% | viability, T/C [17]: 55.2% | viability, T/C [18]: 17.4% | viability, T/C [19]: 69.3% | viability, T/C [20]: 68.4% | viability, T/C [21]: 64.1% | viability, T/C [22]: 57% | viability, T/C [23]: 49.6% | viability, T/C [24]: 15.8% | viability, T/C [25]: 50.2% | viability, T/C [26]: 54.8% | viability, T/C [27]: 57.4% | viability, T/C [28]: 50.9% | viability, T/C [29]: 36.2% | viability, T/C [30]: 13.2% | viability, T/C [31]: 41.5% | viability, T/C [32]: 39.7% | viability, T/C [33]: 38.8% | viability, T/C [34]: 40% | viability, T/C [35]: 26.4% | viability, T/C [36]: 9.66%

CCCS(=O)(=O)Nc1ccc(F)c(C(=O)c2c[nH]c3ncc(-c4ccc(Cl)cc4)cc23)c1F + CC(Nc1ncnc2nc[nH]c12)c1cc2cccc(Cl)c2c(=O)n1-c1ccccc1
IC50 (second compound 0.0316 µM): 4450 nM | IC50 (second compound 0.1 µM): 3910 nM | IC50 (second compound 0.316 µM): 3740 nM | IC50 (second compound 1 µM): 3490 nM | IC50 (second compound 3.16 µM): 2530 nM | IC50 (second compound 10 µM): < 31.6 nM | viability, T/C [5]: 96.6% | viability, T/C [6]: 86.8% | viability, T/C (second compound 0.0316 µM, first compound 0.316 µM): 84.3% | viability, T/C (second compound 0.0316 µM, first compound 1 µM): 83.2% | viability, T/C (second compound 0.0316 µM, first compound 3.16 µM): 65.3% | viability, T/C (second compound 0.0316 µM, first compound 10 µM): 15.6% | viability, T/C [11]: 92.4% | viability, T/C [12]: 90.9% | viability, T/C (second compound 0.1 µM, first compound 0.316 µM): 76.3% | viability, T/C (second compound 0.1 µM, first compound 1 µM): 82.2% | viability, T/C (second compound 0.1 µM, first compound 3.16 µM): 58.1% | viability, T/C (second compound 0.1 µM, first compound 10 µM): 13.4% | viability, T/C [17]: 83.2% | viability, T/C [18]: 89.2% | viability, T/C (second compound 0.316 µM, first compound 0.316 µM): 78.3% | viability, T/C (second compound 0.316 µM, first compound 1 µM): 73.6% | viability, T/C (second compound 0.316 µM, first compound 3.16 µM): 57.2% | viability, T/C (second compound 0.316 µM, first compound 10 µM): 14% | viability, T/C [23]: 61.7% | viability, T/C [24]: 66.1% | viability, T/C (second compound 1 µM, first compound 0.316 µM): 69% | viability, T/C (second compound 1 µM, first compound 1 µM): 68.3% | viability, T/C (second compound 1 µM, first compound 3.16 µM): 53.6% | viability, T/C (second compound 1 µM, first compound 10 µM): 11% | viability, T/C [29]: 53.6% | viability, T/C [30]: 64.3% | viability, T/C (second compound 3.16 µM, first compound 0.316 µM): 49.3% | viability, T/C (second compound 3.16 µM, first compound 1 µM): 57.7% | viability, T/C (second compound 3.16 µM, first compound 3.16 µM): 48.4% | viability, T/C (second compound 3.16 µM, first compound 10 µM): 11.2% | viability, T/C [35]: 40.3% | viability, T/C [36]: 39.3% | viability, T/C (second compound 10 µM, first compound 0.316 µM): 40.6% | viability, T/C (second compound 10 µM, first compound 1 µM): 42.9% | viability, T/C (second compound 10 µM, first compound 3.16 µM): 41.1% | viability, T/C (second compound 10 µM, first compound 10 µM): 8.78%
